Test results from ChEMBL document CHEMBL4732115, “Discovery of novel cell-penetrating and tumor-targeting peptide-drug conjugate (PDC) for programmable delivery of paclitaxel and cancer treatment” (Eur J Med Chem, 2021).
Calls of active or inactive are those of the source. The calls are words filed in the database; no cut-off is given here. Peptide text beside a SMILES is read from it. * marks the point of attachment. X1 = CC(=O)O[C@H]1C(=O)[C@@]2(C)[C@H]([C@H](OC(=O)c3ccccc3)[C@]3(O)C[C@H](OC(=O)[C@H](OC(=O)OCCS*)[C@@H](NC(=O)c4ccccc4)c4ccccc4)C(C)=C1C3(C)C)[C@]1(OC(C)=O)CO[C@@H]1C[C@@H]2O; X2 = NCCCC[C@H](N*)C(=O)NC(=O)C1CCC(=O)N1

Tests used:
[1] = system: HT-29; test: Cytotoxicity against human HT-29 cells assessed as reduction in cell viability measured after 48 hrs by MTT assay; type: functional, cell-based; details: HT-29, 48 h
[2] = system: HeLa; test: Cytotoxicity against human HeLa cells assessed as reduction in cell viability measured after 48 hrs by MTT assay; type: functional, cell-based
[3] = system: A2780; test: Cytotoxicity against human A2780 cells assessed as reduction in cell viability measured after 48 hrs by MTT assay; type: functional, cell-based; details: A2780, 48 h
[4] = Cytotoxicity against human A2780/PTX cells assessed as reduction in cell viability measured after 48 hrs by MTT assay; type: functional, cell-based
[5] = system: NCM460; test: Cytotoxicity against human NCM460 cells assessed as reduction in cell viability measured after 48 hrs by MTT assay; type: cell-based; details: NCM460, 48 h
[6] = system: HEK293; test: Cytotoxicity against HEK293 cells assessed as reduction in cell viability measured after 48 hrs by MTT assay; type: cell-based; details: Homo sapiens, HEK293, 48 h
[7] = system: Erythrocyte; test: Hemolytic activity against human erythrocytes up to 80 uM measured after 1 hr; type: ADME, cell-based
[8] = target: 72 kDa type IV collagenase (Homo sapiens, UniProt P08253); test: Drug metabolism in PBS buffer assessed as MMP2 (unknown origin)-mediated CPP-PTX formation at 0.5 uM measured after 2 hrs by LC-MS analysis; type: ADME
72 kDa type IV collagenase, sequence (P08253 whole entry): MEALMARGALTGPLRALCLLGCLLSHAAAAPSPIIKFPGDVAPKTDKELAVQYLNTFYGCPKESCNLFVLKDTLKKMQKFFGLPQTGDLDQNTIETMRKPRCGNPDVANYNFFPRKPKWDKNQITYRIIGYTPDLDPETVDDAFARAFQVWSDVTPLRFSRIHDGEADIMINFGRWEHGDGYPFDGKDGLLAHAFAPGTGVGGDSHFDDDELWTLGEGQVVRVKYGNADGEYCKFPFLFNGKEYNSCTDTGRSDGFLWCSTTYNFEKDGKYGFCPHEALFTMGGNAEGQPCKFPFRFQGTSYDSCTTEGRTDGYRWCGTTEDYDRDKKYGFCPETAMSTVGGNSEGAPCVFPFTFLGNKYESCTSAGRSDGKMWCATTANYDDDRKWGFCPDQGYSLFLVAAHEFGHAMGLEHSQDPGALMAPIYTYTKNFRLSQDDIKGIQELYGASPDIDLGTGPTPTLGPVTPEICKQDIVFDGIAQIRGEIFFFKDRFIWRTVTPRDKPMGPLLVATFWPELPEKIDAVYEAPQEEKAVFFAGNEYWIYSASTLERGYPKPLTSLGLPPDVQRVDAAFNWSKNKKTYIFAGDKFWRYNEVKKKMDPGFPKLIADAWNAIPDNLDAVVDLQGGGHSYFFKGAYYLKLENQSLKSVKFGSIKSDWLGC

[9] = system: MCF7; test: Cytotoxicity against human MCF7 cells assessed as reduction in cell viability measured after 48 hrs in presence of MMP inhibitor ilomastat and LHRH by MTT assay; type: functional, cell-based
[10] = Drug uptake in human MCF7 cells at 20 nM measured after 4 hrs by LC-MS analysis; type: ADME, cell-based; details: mcf7, 4 h, 0.02 µM
[11] = Drug uptake in human MCF7 cells at 20 nM measured after 4 hrs in presence of MMP inhibitor ilomastat by LC-MS analysis; type: ADME, cell-based; details: mcf7, 4 h, 0.02 µM
[12] = system: MCF7; test: Induction of apoptosis in human MCF7 cells at IC50 measured after 4 hrs by Annexin-V FITC/propidium iodide staining based flow cytometry; type: functional, cell-based
[13] = system: MCF7; test: Cell cycle arrest in human MCF7 cells assessed as increase in accumulation at G2/M-phase at IC50 measured after 4 hrs by […] flow cytometry; type: functional
[14] = system: MCF7; test: Antimigratory activity against human MCF7 cells at 1.8 nM measured after 48 hrs by scratch wound-healing assay; type: functional, cell-based
[15] = system: MCF7; test: Antitumor activity against human MCF7 cells xenografted in ip dosed BALB/c nude mouse assessed as tumor shrinkage administered every two days for two weeks; type: functional, organism-based; details: dose 8-12 µmol/kg, time 2.0 weeks
[16] = system: MCF7; test: Antitumor activity against human MCF7 cells xenografted in BALB/c nude mouse assessed as reduction in tumor weight at 8 umol/kg, ip administered every two days for two weeks relative to control; type: functional; design: scale not given: the % may be the effect or the level left; details: dose 8 µmol/kg; time 2 weeks
[17] = Toxicity in human MCF7 cells xenografted in BALB/c nude mouse assessed as morphological changes in heart at 8 to 12 umol/kg, ip administered every two days for two weeks measured post last dose by H and E staining based histological analysis; type: organism-based; details: in vivo, 336 h, dose 8-12 µmol/kg, time 2 weeks
[18] = Toxicity in human MCF7 cells xenografted in BALB/c nude mouse assessed as morphological changes in spleen at 8 to 12 umol/kg, ip administered every two days for two weeks measured post last dose by H and E staining based histological analysis; type: organism-based; details: in vivo, 336 h, dose 8-12 µmol/kg, time 2 weeks
[19] = Toxicity in human MCF7 cells xenografted in BALB/c nude mouse assessed as morphological changes in lung at 8 to 12 umol/kg, ip administered every two days for two weeks measured post last dose by H and E staining based histological analysis; type: organism-based; details: in vivo, 336 h, dose 8-12 µmol/kg, time 2 weeks
[20] = system: MCF7; test: Induction of apoptosis in human MCF7 cells xenografted in ip dosed BALB/c nude mouse assessed as down regulation of Bcl2 expression administered every two days for two weeks measured post last dose by Western blot analysis; type: functional, organism-based; details: dose 8-12 µmol/kg, time 2.0 weeks
[21] = Drug conversion in tumor of BALB/c nude mouse xenografted with human MCF7 cells assessed as T2-PTX formation at 8 to 12 umol/kg, ip measured after 2 hrs by LC-MS analysis; type: ADME, organism-based, Neoplasm; details: in vivo, dose 8-12 µmol/kg
[22] = Drug conversion in liver of BALB/c nude mouse xenografted with human MCF7 cells assessed as PTX formation at 8 to 12 umol/kg, ip measured after 2 hrs by LC-MS analysis; type: ADME, organism-based; details: in vivo, dose 8-12 µmol/kg
[23] = Drug conversion in kidney of BALB/c nude mouse xenografted with human MCF7 cells assessed as PTX formation at 8 to 12 umol/kg, ip measured after 2 hrs by LC-MS analysis; type: ADME, organism-based; details: in vivo, dose 8-12 µmol/kg
[24] = Drug conversion in heart of BALB/c nude mouse xenografted with human MCF7 cells assessed as T2-PTX formation at 8 to 12 umol/kg, ip measured after 2 hrs by LC-MS analysis; type: ADME, organism-based; details: in vivo, dose 8-12 µmol/kg
[25] = Drug conversion in kidney of BALB/c nude mouse xenografted with human MCF7 cells assessed as T2-PTX formation at 8 to 12 umol/kg, ip measured after 2 hrs by LC-MS analysis; type: ADME, organism-based; details: in vivo, dose 8-12 µmol/kg
[26] = Drug conversion in serum of BALB/c nude mouse xenografted with human MCF7 cells assessed as T2-PTX formation at 8 to 12 umol/kg, ip measured after 2 hrs by LC-MS analysis; type: ADME, organism-based; details: in vivo, dose 8-12 µmol/kg
[27] = Neurotoxicity in BALB/c mouse assessed as increase in pain sensitivity at 12 umol/kg, ip administered every two days for 14 days by hot-plate test; type: toxicity, organism-based; details: in vivo, 336 h, dose 12 µmol/kg, time 14 day
[28] = Neurotoxicity in BALB/c mouse assessed as increase in pain sensitivity at 12 umol/kg, ip administered every two days for 14 days by cold water tail immersion test; type: toxicity, organism-based; details: in vivo, 336 h, dose 12 µmol/kg, time 14 day
[29] = Neurotoxicity in BALB/c mouse assessed as change in acetylcholine level at 12 umol/kg, ip administered every two days for 14 days measured post last dose by LC-MS analysis; type: toxicity, organism-based; details: in vivo, 336 h, dose 12 µmol/kg, time 14 day
[30] = Neurotoxicity in BALB/c mouse assessed as change in DOPAC level at 12 umol/kg, ip administered every two days for 14 days measured post last dose by LC-MS analysis; type: toxicity, organism-based; details: in vivo, 336 h, dose 12 µmol/kg, time 14 day
[31] = Neurotoxicity in BALB/c mouse assessed as change in glutamate level at 12 umol/kg, ip administered every two days for 14 days measured post last dose by LC-MS analysis; type: toxicity, organism-based; details: in vivo, 336 h, dose 12 µmol/kg, time 14 day
[32] = Neurotoxicity in BALB/c mouse assessed as change in glutamine level at 12 umol/kg, ip administered every two days for 14 days measured post last dose by LC-MS analysis; type: toxicity, organism-based; details: in vivo, 336 h, dose 12 µmol/kg, time 14 day
[33] = Neurotoxicity in BALB/c mouse assessed as change in noradrenaline level at 12 umol/kg, ip administered every two days for 14 days measured post last dose by LC-MS analysis; type: toxicity, organism-based; details: in vivo, 336 h, dose 12 µmol/kg, time 14 day
[34] = Neurotoxicity in BALB/c mouse assessed as change in serotonin level at 12 umol/kg, ip administered every two days for 14 days measured post last dose by LC-MS analysis; type: toxicity, organism-based; details: in vivo, 336 h, dose 12 µmol/kg, time 14 day
[35] = Neurotoxicity in BALB/c mouse assessed as change in vanillylmandelic acid level at 12 umol/kg, ip administered every two days for 14 days measured post last dose by LC-MS analysis; type: toxicity, organism-based; details: in vivo, 336 h, dose 12 µmol/kg, time 14 day
[36] = Myelosuppression in BALB/c mouse assessed as change in lymphocyte count at 12 umol/kg, ip administered every two days for 14 days measured post last dose; type: ADME, organism-based; details: in vivo, 336 h, dose 12 µmol/kg, time 14 day
[37] = Myelosuppression in BALB/c mouse assessed as change in granulocyte count at 12 umol/kg, ip administered every two days for 14 days measured post last dose; type: ADME, organism-based; details: in vivo, 336 h, dose 12 µmol/kg, time 14 day

In the case of `CC(=O)O[C@H]1C(=O)[C@@]2(C)[C@H]([C@H](OC(=O)c3ccccc3)[C@]3(O)C[C@H](OC(=O)[C@H](OC(=O)OCCSSC[C@H](N)C(=O)N[C@@H](CC(C)C)C(=O)N[C@@H](CC(C)C)C(=O)N[C@@H](CCCCN)C(=O)N[C@@H](CCCNC(=N)N)C(=O)N[C@@H](Cc4ccccc4)C(=O)N[C@@H](Cc4ccccc4)C(=O)N[C@@H](CCCCN)C(=O)N[C@@H](CCCCN)C(=O)N[C@@H](Cc4ccccc4)C(=O)NCC(=O)N[C@@H](C)C(=O)N[C@@H](CC(C)C)C(=O)NCC(=O)N[C@@H](CC(C)C)C(=O)N4CCC[C@H]4C(=O)NCC(=O)N4CCC[C@H]4C(=O)N[C@@H](CCCNC(=N)N)C(=O)N[C@@H](CC(C)C)C(=O)NCC(=O)N[C@@H](Cc4ccc(O)cc4)C(=O)N[C@@H](CO)C(=O)N[C@@H](Cc4c[nH]c5ccccc45)C(=O)N[C@@H](CCCCN)C(=O)NC(=O)C4CCC(=O)N4)[C@@H](NC(=O)c4ccccc4)c4ccccc4)C(C)=C1C3(C)C)[C@]1(OC(C)=O)CO[C@@H]1C[C@@H]2O` (some centres not stated) (H-C(X1)LLKRFFKKFGALGLPGPRLGYSW-X2), the IC50 [1] is reported as 5.6 nM, the IC50 [2] is reported as 20.3 nM and the IC50 [3] is reported as 8.3 nM. The IC50 [4] was 800 nM, the IC50 [5] was greater than 80 nM and the IC50 [6] was 66 nM. For the same molecule, the Activity [7] was “Non-Toxic”, the Drug metabolism [8] was “Metabolite_Detected” and the Activity [9] was “inactive”. For the same molecule, the Drug uptake [10] was “Active”, the Drug uptake [11] was “Active” and the Activity [12] was “Active”. The Activity [13] was “Active”, the Activity [14] was “Active” and the Activity [15] was “Dose-dependent effect”. The Activity [16] was 67.1%, the Activity [17] was “Non-Toxic” and the Activity [18] was “Non-Toxic”. The Activity [19] was “Non-Toxic”, the Activity [20] was “Dose-dependent effect” and the Drug metabolism [21] was “Metabolite_Detected”. The Drug metabolism [22] was “Metabolite_Notdetected”, the Drug metabolism [23] was “Metabolite_Notdetected” and the Drug metabolism [24] was “Metabolite_Notdetected”. The Drug metabolism [25] was “Metabolite_Notdetected”, the Drug metabolism [26] was “Metabolite_Notdetected” and the Activity [27] was “Non-Toxic”. The Activity [28] was “Non-Toxic”, the Activity [29] was “Non-Toxic” and the Activity [30] was “Non-Toxic”. For the same molecule, the Activity [31] was “Non-Toxic”, the Activity [32] was “Non-Toxic” and the Activity [33] was “Non-Toxic”. For the same molecule, the Activity [34] was “Non-Toxic”, the Activity [35] was “Non-Toxic” and the Activity [36] was “Non-Toxic”. The Activity [37] was “Non-Toxic”.
